Holding throughout (test): NCI anticancer screen, dose series, 48 h
Assay [1] has as its system UACC-62 melanoma.
For assay [2], the system named is NCI-H522 lung.
The test system of assay [3] is MDA-MB-435.
Assay [4] relates to HCT-116 colon.
In assay [5] the test system is HL-60(TB) leukemia.
Assay [6] deals with OVCAR-4 ovarian.
The test system of assay [7] is MALME-3M melanoma.
The test system of assay [8] is A498 renal.
In assay [9] the test system is OVCAR-3 ovarian.
The test system of assay [10] is OVCAR-8 ovarian.

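Compound exposure: 48 hours, 5 concentrations, 96-well plates. Abbreviation: GI50, concentration required for 50% inhibition of growth. The concentration for full growth arrest is given as TGI.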 Some results are limits rather than exact numbers.

As to `Cn1cc(C2=C(c3cn(C)c4ccc(N)cc34)C(=O)NC2=O)c2ccccc21`, the GI50 was 13.1 µM in [1]; 6.78 µM in assay [2]; 0.729 µM in assay [3]; 6.65 µM in [4]; 7.41 µM in [5]; greater than 20.2 µM in [6]. Further, the GI50 is greater than 25 µM in assay [7], 9.28 µM in assay [8], 4.79 µM in assay [9] and 17 µM in assay [10]. Further, the TGI in assay [1], in [2], in [3], in assay [4], in assay [5] and in [6] was greater than 25 µM throughout. In addition, the TGI in assay [7] is greater than 25 µM; in [8], greater than 25 µM; in [9], 16 µM; in assay [10], greater than 25 µM.
Take `CC1(C)N=C(N)N=C(N)N1c1ccc(CCc2ccccc2)c(Cl)c1`: the GI50 in [1] was 0.0572 µM; in assay [2], 0.236 µM; in assay [3] it was 0.0528 µM; in [4] it was 0.0347 µM; in assay [5], 0.0473 µM; in [6], 0.52 µM. For the same compound, the GI50 was 0.728 µM in assay [7], 0.788 µM in assay [8], 0.281 µM in [9] and 0.0897 µM in assay [10]. Further, the TGI in assay [1] turned out to be 11.7 µM; in assay [2] it was 12.7 µM; in assay [3] it was 15.7 µM; in assay [4], 14 µM; in assay [5], 2.72 µM; in assay [6], 13.1 µM. In addition, the TGI in assay [7] came out at 19 µM; in assay [8] it was 15 µM; in assay [9] it was 12.4 µM; in [10], 13.6 µM.
In the case of `CNC(=O)Nc1ccc(-c2nc(N3CCOCC3)nc3c2cnn3C2CCOCC2)cc1`, the GI50 is 0.182 µM in assay [1]; 0.43 µM in assay [2]; 0.168 µM in assay [3]; 0.422 µM in [4]; 1.01 µM in assay [5]; 0.191 µM in assay [6]. Further, the GI50 in assay [7] is 0.0509 µM; in assay [8], less than 0.0218 µM; in assay [9], 0.21 µM; in assay [10], 0.247 µM. Also, the TGI is 1.19 µM in assay [1]; greater than 100 µM in assay [2]; 0.821 µM in assay [3]; greater than 100 µM in assay [4]; greater than 100 µM in assay [5]; 0.44 µM in assay [7]. The TGI in [8] amounted to 0.148 µM; in assay [10], 6.47 µM.
Turning to `O=C(Nc1ccc(OC(F)(F)F)cc1)c1sccc1NCc1ccnc2ccccc12`, the GI50 is 1.89 µM in assay [1]; 3 µM in [2]; 2.87 µM in assay [3]; 2.12 µM in assay [4]; 1.78 µM in assay [5]; 4.57 µM in [6]. Moreover, the GI50 was 1.85 µM in [7], 3 µM in [8], 4.89 µM in assay [9] and 4.18 µM in assay [10]. For the same compound, the TGI in [1] was 14.9 µM; in assay [2] it was greater than 72 µM; in [3], 18.7 µM; in assay [4], greater than 100 µM; in [5], 19.3 µM; in assay [6] it was greater than 100 µM. The TGI is 14.6 µM in assay [7], greater than 40.9 µM in assay [8], greater than 100 µM in assay [9] and greater than 56.4 µM in assay [10].
Regarding `N#CC(C#N)SCc1ccccc1`, the TGI in assay [1] was greater than 93.1 µM; in assay [2], 57.7 µM; in assay [3], 35.7 µM; in assay [4] it was 75.5 µM; in assay [5], 14.7 µM; in assay [6], greater than 100 µM. Further, the TGI is greater than 100 µM in [7], greater than 100 µM in assay [8], greater than 100 µM in [9] and 49.9 µM in assay [10].
For `COC1/C=C/OC2(C)Oc3c(C)c(O)c4c(c3C2=O)C(=O)C=C(NC(=O)/C(C)=C\C=C\C(C)C(OC=O)C(C)C(O)C(C)C(OC(C)=O)C1C)C4=O` (stereo not drawn), the TGI was found to be 27.9 µM in assay [1]; 6.33 µM in assay [2]; 33.3 µM in assay [3]; 14.1 µM in [4]; 5.88 µM in assay [5]; 19.1 µM in [6]. The TGI in assay [7] came out at 28.7 µM; in assay [8], 41.3 µM; in assay [9], 11.9 µM; in assay [10] it was 33.5 µM.
Regarding `COc1cc2cc(Oc3ccc(NC(=O)c4cccc(C(F)(F)F)c4)cc3)c(C)nc2cc1OC`, the GI50 in assay [1] is 5.27 µM; in [2], 2.81 µM; in [3], 5.39 µM; in assay [4] it was 3.22 µM; in assay [5] it was 3.84 µM; in assay [6], 3.68 µM. Further, the GI50 in assay [7] was greater than 100 µM; in assay [8] it was 1.78 µM; in assay [9] it was 3.96 µM; in assay [10] it was 6.91 µM. Besides, the TGI in assay [1], in [2], in [3], in [4], in assay [5] and in assay [6] was greater than 100 µM throughout. Also, the TGI in [7] is greater than 100 µM; in [8], 65 µM; in assay [9], 45.5 µM; in assay [10], greater than 100 µM.

Source of the values: PubChem BioAssay (NCI).
